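Grown in 96-well plates, cells were treated for 48 hours with each compound at five concentrations. Insufficient inhibition: endpoint recorded as highest concentration tested. Abbreviation: GI50, concentration required for 50% inhibition of growth.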 The source made the active and inactive calls. Cut-off read from the data, not from the text of the source: active = GI50 up to about 1.1 µM and inactive = higher.
Legend:
Assay in all cases: NCI-60 cell line screen, 48 h
MCF7 = system: MCF7
OVCAR-8 = system: OVCAR-8
KM12 = system: KM12
UACC-62 = system: UACC-62
Hs-578T = system: Hs-578T
CAKI-1 = system: CAKI-1
HCT-116 = system: HCT-116
786-0 = system: 786-0
HOP-92 = system: HOP-92
EKVX = system: EKVX
UACC-257 = system: UACC-257
OVCAR-4 = system: OVCAR-4
SK-OV-3 = system: SK-OV-3
HOP-62 = system: HOP-62
IGROV-1 = system: IGROV-1
HCT-15 = system: HCT-15
OVCAR-5 = system: OVCAR-5
SK-MEL-28 = system: SK-MEL-28
OVCAR-3 = system: OVCAR-3
MDA-MB-231 = system: MDA-MB-231

Measured: GI50

CC1=C(C(=O)NCC(C)O)CC(C(=O)NCC(C)O)=C(C)N1 (stereo not given)
inactive: MCF7 > 100 µM | OVCAR-8 > 100 µM | KM12 > 100 µM | UACC-62 > 100 µM | Hs-578T > 100 µM | CAKI-1 > 100 µM | HCT-116 > 100 µM | 786-0 > 100 µM | HOP-92 > 100 µM | EKVX > 100 µM | UACC-257 > 100 µM | OVCAR-4 > 100 µM | SK-OV-3 > 100 µM | HOP-62 > 100 µM | IGROV-1 > 100 µM | OVCAR-5 > 100 µM | SK-MEL-28 > 100 µM | OVCAR-3 > 100 µM | MDA-MB-231 46.5 µM
> 100 µM: HCT-15

COc1cccc(-c2cc(O)c3cc(Cl)cnc3n2)c1
0.114 µM: HCT-15
inactive: EKVX > 16.6 µM | UACC-257 6.92 µM | OVCAR-4 6.17 µM | OVCAR-5 1.33 µM
active: MCF7 0.484 µM | OVCAR-8 0.158 µM | KM12 0.0887 µM | UACC-62 0.0589 µM | Hs-578T 0.0743 µM | CAKI-1 0.0546 µM | HCT-116 0.0469 µM | 786-0 0.102 µM | HOP-92 0.469 µM | SK-OV-3 0.152 µM | HOP-62 0.0809 µM | IGROV-1 0.228 µM | SK-MEL-28 0.0918 µM | OVCAR-3 0.0369 µM | MDA-MB-231 0.338 µM

CCCCCCCCCCCCCCCCCC(=O)OCC(COC1OC(COP(=O)(O)O)C(O)C(O)C1O)OC(=O)CCCCCCCCCCCCCCCCC (stereo not given)
7.52 µM: HCT-15
inactive: MCF7 8.38 µM | OVCAR-8 7.35 µM | KM12 6.27 µM | UACC-62 8.57 µM | Hs-578T 6.14 µM | CAKI-1 9.73 µM | HCT-116 8.83 µM | 786-0 7.94 µM | HOP-92 4.14 µM | EKVX 7.74 µM | UACC-257 8.61 µM | OVCAR-4 7.41 µM | SK-OV-3 8 µM | HOP-62 8.26 µM | IGROV-1 4.02 µM | OVCAR-5 5.28 µM | SK-MEL-28 9.98 µM | OVCAR-3 8.87 µM | MDA-MB-231 3.04 µM

CC1(C)SC2C(NC(=O)Cc3ccccc3)C(=O)N2C1C(=O)O (stereo not given)
> 100 µM: HCT-15
inactive: MCF7 > 100 µM | OVCAR-8 > 100 µM | KM12 > 100 µM | UACC-62 > 100 µM | Hs-578T > 100 µM | CAKI-1 > 100 µM | HCT-116 > 100 µM | 786-0 > 100 µM | HOP-92 > 100 µM | EKVX > 100 µM | UACC-257 > 100 µM | OVCAR-4 > 100 µM | SK-OV-3 > 100 µM | HOP-62 > 100 µM | IGROV-1 > 100 µM | OVCAR-5 > 100 µM | SK-MEL-28 > 100 µM | OVCAR-3 > 100 µM | MDA-MB-231 > 100 µM

O=C(/C=C(\Nc1ccccc1O)c1ccc(Br)cc1)C(Cl)(Cl)Cl
active: SK-OV-3 1.07 µM
inactive: MCF7 5.21 µM | OVCAR-8 12.6 µM | KM12 2.75 µM | UACC-62 13.3 µM | Hs-578T 3.1 µM | CAKI-1 6.3 µM | HCT-116 10.5 µM | 786-0 14.4 µM | HOP-92 2.6 µM | EKVX 3.21 µM | UACC-257 7.26 µM | OVCAR-4 5.16 µM | HOP-62 13.6 µM | IGROV-1 10.3 µM | OVCAR-5 12.1 µM | SK-MEL-28 11 µM | OVCAR-3 4.34 µM | MDA-MB-231 6.95 µM
12.2 µM: HCT-15

CCCCCCCCCCCCC/C=C/[C@@H](O)[C@H](COC1OC(CO)C(OC2OC(CO)C(O)C(OC3(C(=O)O)CC(O)C(NC(C)=O)C(C(O)C(O)CO)O3)C2O)C(O)C1O)N=[N+]=[N-] (stereo not given in full)
inactive: MCF7 > 100 µM | OVCAR-8 21.8 µM | KM12 18.5 µM | UACC-62 15.8 µM | Hs-578T 55.7 µM | CAKI-1 > 100 µM | HCT-116 70.1 µM | 786-0 > 100 µM | HOP-92 > 100 µM | EKVX > 100 µM | UACC-257 40 µM | OVCAR-4 > 100 µM | SK-OV-3 31.2 µM | HOP-62 20.5 µM | IGROV-1 32.9 µM | OVCAR-5 56 µM | SK-MEL-28 30.3 µM | OVCAR-3 > 100 µM | MDA-MB-231 > 100 µM
72.9 µM: HCT-15

NC(Cc1c[nH]c(I)n1)C(=O)O (stereo not given)
inactive: MCF7 41.4 µM | OVCAR-8 81.5 µM | KM12 > 100 µM | UACC-62 > 100 µM | Hs-578T 23.8 µM | CAKI-1 29.3 µM | HCT-116 81.5 µM | 786-0 > 100 µM | HOP-92 25.6 µM | EKVX 42.7 µM | UACC-257 41.1 µM | OVCAR-4 49.9 µM | SK-OV-3 > 100 µM | HOP-62 > 100 µM | IGROV-1 67 µM | OVCAR-5 > 100 µM | SK-MEL-28 74.1 µM | OVCAR-3 32.4 µM | MDA-MB-231 > 100 µM
46.2 µM: HCT-15

O=C1CSC(c2ccccc2)N1c1nc2cc3sc(N4C(=O)CSC4c4ccccc4)nc3cc2s1 (stereo not given)
10.2 µM: HCT-15
inactive: MCF7 12.9 µM | OVCAR-8 70.8 µM | KM12 17.5 µM | UACC-62 56.8 µM | Hs-578T > 51.2 µM | CAKI-1 39.5 µM | HCT-116 24.6 µM | 786-0 > 100 µM | HOP-92 > 100 µM | EKVX 22.1 µM | UACC-257 85.1 µM | OVCAR-4 60.1 µM | SK-OV-3 > 100 µM | HOP-62 > 100 µM | IGROV-1 23.4 µM | OVCAR-5 60 µM | SK-MEL-28 > 100 µM | OVCAR-3 36.6 µM | MDA-MB-231 68.7 µM

COc1cc(C2c3cc4c(cc3OC(N3CCCC3)C2C)OCO4)cc(OC)c1O (stereo not given)
inactive: MCF7 9.93 µM | OVCAR-8 24 µM | KM12 6.59 µM | UACC-62 5.16 µM | Hs-578T 4.66 µM | CAKI-1 16.1 µM | HCT-116 9.98 µM | 786-0 13.9 µM | HOP-92 19.4 µM | EKVX 32.5 µM | UACC-257 35.6 µM | OVCAR-4 59.6 µM | SK-OV-3 11.5 µM | HOP-62 11.6 µM | IGROV-1 19.4 µM | OVCAR-5 61.5 µM | SK-MEL-28 > 43.9 µM | OVCAR-3 13.5 µM | MDA-MB-231 19.4 µM
14 µM: HCT-15

COc1cccc(C2ON=C(c3ccccc3)N2C23CC4CC(CC(C4)C2)C3)c1 (stereo not given)
> 10 µM: HCT-15
inactive: MCF7 > 10 µM | OVCAR-8 > 10 µM | KM12 > 10 µM | UACC-62 > 10 µM | Hs-578T > 10 µM | CAKI-1 > 10 µM | HCT-116 > 10 µM | 786-0 > 10 µM | HOP-92 > 10 µM | EKVX > 10 µM | UACC-257 > 10 µM | OVCAR-4 5.46 µM | SK-OV-3 > 10 µM | HOP-62 > 10 µM | IGROV-1 > 10 µM | OVCAR-5 > 10 µM | SK-MEL-28 > 10 µM | OVCAR-3 9.04 µM | MDA-MB-231 > 10 µM

COc1ccc(C(Nc2ncccn2)c2cc3c(cc2O)OCO3)cc1 (stereo not given)
inactive: MCF7 23.5 µM | OVCAR-8 19.2 µM | KM12 17.9 µM | UACC-62 32.4 µM | Hs-578T 23.4 µM | CAKI-1 20.3 µM | HCT-116 29.4 µM | 786-0 18 µM | HOP-92 37.2 µM | EKVX 22.9 µM | UACC-257 18.9 µM | OVCAR-4 42.8 µM | SK-OV-3 22.1 µM | HOP-62 22.4 µM | IGROV-1 23 µM | OVCAR-5 31.8 µM | SK-MEL-28 22.3 µM | OVCAR-3 17.3 µM | MDA-MB-231 21.3 µM
18.8 µM: HCT-15

CCC12CC(c3ccccc3)C(C(=O)N1)C(=O)N2 (stereo not given)
> 100 µM: HCT-15
inactive: MCF7 > 100 µM | OVCAR-8 > 100 µM | KM12 > 100 µM | UACC-62 > 100 µM | Hs-578T > 100 µM | CAKI-1 > 100 µM | HCT-116 > 100 µM | 786-0 > 100 µM | HOP-92 > 100 µM | EKVX > 100 µM | UACC-257 > 100 µM | OVCAR-4 > 100 µM | SK-OV-3 > 100 µM | HOP-62 > 100 µM | IGROV-1 > 100 µM | OVCAR-5 > 100 µM | SK-MEL-28 > 100 µM | OVCAR-3 > 100 µM | MDA-MB-231 > 100 µM

Clc1ccc2ns[s+]c2c1
0.33 µM: HCT-15
inactive: MCF7 3.33 µM | OVCAR-8 20.4 µM | KM12 3.66 µM | Hs-578T 78 µM | CAKI-1 1.63 µM | 786-0 53.8 µM | HOP-92 22.5 µM | EKVX 17.7 µM | UACC-257 14.5 µM | OVCAR-4 22.4 µM | SK-OV-3 > 100 µM | HOP-62 4.32 µM | IGROV-1 40.3 µM | OVCAR-5 6.58 µM | SK-MEL-28 17.7 µM | OVCAR-3 31.6 µM | MDA-MB-231 25.3 µM
active: UACC-62 0.275 µM | HCT-116 1.03 µM

COc1ccc2c(=O)c(-c3cc4c(cc3OC)OCO4)coc2c1
> 100 µM: HCT-15
inactive: MCF7 97.3 µM | OVCAR-8 55.2 µM | KM12 > 100 µM | UACC-62 > 100 µM | Hs-578T > 100 µM | CAKI-1 51.8 µM | HCT-116 > 100 µM | 786-0 60.1 µM | HOP-92 32.9 µM | EKVX > 100 µM | UACC-257 > 100 µM | OVCAR-4 > 100 µM | SK-OV-3 > 100 µM | HOP-62 41.9 µM | IGROV-1 58.9 µM | OVCAR-5 > 100 µM | SK-MEL-28 > 100 µM | OVCAR-3 > 100 µM | MDA-MB-231 61.5 µM

Reference: ChEMBL document CHEMBL1201862, “PubChem BioAssay data set” (2004)
